Data as given in US7375109B2, “Glycine-substituted thieno[2,3-d]pyrimidines with combined LH and FSH agonistic activity” (N.V. Organon, priority 2001, dated 2008).

Legend:
[1] = biological target: T1, human LH receptor (Homo sapiens, UniProt P22888); test: CHO-LH in vitro bioactivity (CRE-luciferase reporter); format: cell-based; conditions: CHO cells stably transfected with human LH receptor
T1 construct: expressed in transfected cells; host or cells: Chinese Hamster Ovary (CHO) cells, stably transfected; cotransfected with CRE-luciferase reporter
T1 sequence (P22888 27-699): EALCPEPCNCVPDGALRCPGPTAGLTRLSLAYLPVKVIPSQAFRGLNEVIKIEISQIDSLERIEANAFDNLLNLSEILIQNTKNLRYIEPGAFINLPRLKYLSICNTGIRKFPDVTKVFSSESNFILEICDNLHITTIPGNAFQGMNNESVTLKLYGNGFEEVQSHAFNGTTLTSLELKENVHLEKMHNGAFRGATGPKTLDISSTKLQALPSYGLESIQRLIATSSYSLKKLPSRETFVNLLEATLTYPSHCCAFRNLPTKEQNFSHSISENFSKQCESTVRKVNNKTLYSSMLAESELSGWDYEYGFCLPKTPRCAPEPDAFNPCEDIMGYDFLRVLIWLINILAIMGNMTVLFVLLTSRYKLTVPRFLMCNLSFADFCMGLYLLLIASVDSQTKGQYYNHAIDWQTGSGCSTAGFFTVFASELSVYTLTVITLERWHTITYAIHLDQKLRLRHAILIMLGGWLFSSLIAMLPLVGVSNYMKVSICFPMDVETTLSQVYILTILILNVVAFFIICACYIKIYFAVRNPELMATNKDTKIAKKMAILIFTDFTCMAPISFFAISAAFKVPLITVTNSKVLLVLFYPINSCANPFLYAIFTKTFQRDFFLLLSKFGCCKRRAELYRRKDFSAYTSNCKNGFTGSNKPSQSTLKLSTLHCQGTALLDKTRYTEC
Experimental: (§1) It has been shown that compounds of the above mentioned formula I show agonistic LH and FSH activity. […] Typically the FSH activity ranges from an activity of about 0.1% of the LH agonist stimulation to about 10% of the LH agonist stimulation.
(§2) LH agonistic activity of compounds were tested in Chinese Hamster Ovary (CHO) cells stably transfected with the human LH receptor and cotransfected with a cAMP responsive element (CRE)/promotor directing the expression of a firefly luciferase reporter gene. Binding of ligand to the Gs-coupled LH receptor will result in an increase of cAMP, which in turn will induce an increased transactivation of the luciferase reporter construct. The luciferase signal was quantified using a luminescence counter. For test compounds, EC50 values (concentration of test compound causing half-maximal (50%) stimulation) were calculated. For that purpose the software program GraphPad PRISM, version 3.0 (GraphPad software Inc., San Diego) was used.

[2] = biological target: T2, human FSH receptor (Homo sapiens, UniProt P23945); test: CHO-FSH in vitro bioactivity (CRE-luciferase reporter); format: cell-based; conditions: CHO cells transfected with human FSH receptor and luciferase reporter gene
T2 construct: expressed in transfected cells; host or cells: CHO cells transfected with human FSH receptor and CRE-luciferase reporter
T2 sequence (P23945 18-695): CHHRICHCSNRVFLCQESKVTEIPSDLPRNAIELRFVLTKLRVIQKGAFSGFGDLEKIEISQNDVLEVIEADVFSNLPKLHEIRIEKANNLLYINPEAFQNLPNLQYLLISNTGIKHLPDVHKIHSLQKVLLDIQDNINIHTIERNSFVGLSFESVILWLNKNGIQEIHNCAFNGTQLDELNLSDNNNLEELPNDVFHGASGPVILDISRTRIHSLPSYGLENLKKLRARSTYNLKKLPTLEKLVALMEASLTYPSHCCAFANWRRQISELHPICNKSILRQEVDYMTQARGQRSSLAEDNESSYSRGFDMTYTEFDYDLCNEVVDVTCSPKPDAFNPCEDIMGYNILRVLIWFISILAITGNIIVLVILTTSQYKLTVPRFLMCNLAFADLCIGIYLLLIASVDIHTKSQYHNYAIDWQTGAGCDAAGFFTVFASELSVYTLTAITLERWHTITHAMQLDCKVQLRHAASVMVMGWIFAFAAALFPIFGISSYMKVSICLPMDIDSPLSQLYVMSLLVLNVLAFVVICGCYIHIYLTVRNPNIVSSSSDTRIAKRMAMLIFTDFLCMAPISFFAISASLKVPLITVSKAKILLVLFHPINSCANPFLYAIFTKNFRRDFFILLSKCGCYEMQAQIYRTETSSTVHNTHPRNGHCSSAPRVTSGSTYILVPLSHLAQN
Experimental: as §1, §2
In a similar way FSH agonistic activity of compounds were tested in CHO cells transfected with the luciferase reporter gene and the human FSH receptor.

[3] = tested on: immature female mice; test: In vivo bioactivity: ovulation induction in immature mice; conditions: immature female mice primed with urinary FSH (Humegon 12.5 IU/animal); 50 mg/kg about 48 hours later; killed 24 hours after treatment
Experimental: To measure LH in vivo activity of compounds, ovulation induction in immature mice can be studied. In this assay immature female mice are primed with urinary FSH and approximately 48 hours later treated with a LH agonistic compound. The animals are killed after LH agonist treatment and the number of ova in the oviduct is microscopically assessed.
To measure in vivo activity of LH/FSH receptor agonistic compounds ovulation induction in immature mice were studied. In this assay immature female mice were primed with urinary FSH (Humegon 12.5 IU/animal). Approximately 48 hours later the animals were treated with a LH/FSH agonistic compound, the preparation of which is described in examples 1, 4, 9 and 17, at a dose-level of 50 mg/kg. The animals were killed 24 hours after LH/FSH agonist treatment and the number of ova in the oviduct was microscopically assessed. On average 10-15 animals were tested. The mean number of ova amounted 8 with the exception of the compound of example 17 (which was 0.4).

Compound | EC50 [1] [nM] | EC50 [2] [nM] | mean number of ova in the oviduct [3]
CCN(CCOC)CC(=O)Nc1cccc(-c2nc(OC(C)C)nc3sc(C(=O)NC(C)(C)C)c(N)c23)c1 [Example 24, tert-Butyl 5-amino-2-isopropoxy-4-(3-((N-ethyl-N-(2-methoxyethyl)-glycinyl)-amino)-phenyl)-thieno[2,3-d]pyrimidine-6-carboxamide] | 78.2 | 2510 | –
CCNc1nc(-c2cccc(NC(=O)CNCC(=O)OC)c2)c2c(N)c(C(=O)NC(C)(C)C)sc2n1 [Example 19, tert-Butyl 5-amino-2-ethylamino-4-(3-((N-(methoxycarbonylmethyl)-glycinyl)-amino)-phenyl)-thieno[2,3-d]pyrimidine-6-carboxamide] | 22.9 | 2300 | –
COCCN(CCOC)CC(=O)Nc1cccc(-c2nc(-c3cccs3)nc3sc(C(=O)NC(C)(C)C)c(N)c23)c1 [Example 16, tert-Butyl 5-amino-2-(2-thienyl)-4-(3-((N,N-di-(2-methoxyethyl)-glycinyl)-amino)-phenyl)-thieno[2,3-d]pyrimidine-6-carboxamide] | 21.3 | 6810 | –
CSc1nc(-c2cccc(NC(=O)CNC(CO)CO)c2)c2c(N)c(C(=O)NC(C)(C)C)sc2n1 [Example 8] | 26.4 | 1000 | –
CC(C)(C)NC(=O)c1sc2nc(-c3ccncc3)nc(-c3cccc(NC(=O)CNC(C)(C)CO)c3)c2c1N [Example 25, tert-Butyl 5-amino-2-(4-pyridyl)-4-(3-((N-(1-hydroxy-2-methyl-prop-2-yl) -glycinyl)-amino)-phenyl)-thieno[2,3-d]pyrimidine-6-carboxamide] | 34.7 | 400 | –
C=CCOc1nc(-c2cccc(NC(=O)CN(CC)CCOC)c2)c2c(N)c(C(=O)NC(C)(C)C)sc2n1 [Example 23, tert-Butyl 5-amino-2-allyloxy-4-(3-((N-ethyl-N-(2-methoxyethyl)-glycinyl)-amino)-phenyl)-thieno[2,3-d]pyrimidine-6-carboxamide] | 36.8 | 1740 | –
CCN(CCOC)CC(=O)Nc1cccc(-c2nc(NC(C)C)nc3sc(C(=O)NC(C)(C)C)c(N)c23)c1 [Example 20, tert-Butyl 5-amino-2-isopropylamino-4-(3-((N-ethyl-N-(2-methoxyethyl)-glycinyl)-amino)-phenyl)-thieno[2,3-d]pyrimidine-6-carboxamide] | 42.4 | 2950 | –
COCCN(CCOC)CC(=O)Nc1cccc(-c2nc(-c3ccncc3)nc3sc(C(=O)NC(C)(C)C)c(N)c23)c1 [Example 26, tert-Butyl 5-amino-2-(4-pyridyl)-4-(3-((N,N-bis-(2-methoxyethyl)-glycinyl)-amino)-phenyl)-thieno[2,3-d]pyrimidine-6-carboxamide] | 38.2 | 1230 | –
C=CCNc1nc(-c2cccc(NC(=O)CNCC(=O)OC)c2)c2c(N)c(C(=O)NC(C)(C)C)sc2n1 [Example 21, tert-Butyl 5-amino-2-allylamino-4-(3-((N-(methoxycarbonylmethyl)-glycinyl)-amino)-phenyl)-thieno[2,3-d]pyrimidine-6-carboxamide] | 57 | 560 | –

Now those with a lower EC50 [1], led by results:

EC50 [1] [nM] | EC50 [2] [nM] | Compound | mean number of ova in the oviduct [3]
18.2 | 3210 | COC(=O)CNCC(=O)Nc1cccc(-c2nc(-c3cccs3)nc3sc(C(=O)NC(C)(C)C)c(N)c23)c1 [Example 15, tert-Butyl 5-amino-2-(2-thienyl)-4-(3-((N-(methoxycarbonylmethyl)-glycinyl)-amino)-phenyl)-thieno[2,3-d]pyrimidine-6-carboxamide] | –
11.8 | 2970 | CC(C)(C)NC(=O)c1sc2nc(-c3ccco3)nc(-c3cccc(NC(=O)CNC(C)(C)CO)c3)c2c1N [Example 12] | –
10.1 | 2480 | COC(=O)CNCC(=O)Nc1cccc(-c2nc(-c3ccccc3)nc3sc(C(=O)NC(C)(C)C)c(N)c23)c1 [Example 10] | –
4 | 616 | CN(CCO)CC(=O)Nc1cccc(-c2nc(-c3ccco3)nc3sc(C(=O)NC(C)(C)C)c(N)c23)c1 [Example 11, tert-Butyl 5-amino-2-(2-furyl)-4-(3-((N-methyl-N-(2-hydroxyethyl)-glycinyl)-amino)-phenyl)-thieno[2,3-d]pyrimidine-6-carboxamide] | –
12.2 | 1130 | CSc1nc(-c2cccc(NC(=O)CNCC(O)CO)c2)c2c(N)c(C(=O)NC(C)(C)C)sc2n1 (centres unmarked) [Example 7] | –
12.1 | 2550 | COC(=O)CNCC(=O)Nc1cccc(-c2nc(-c3ccco3)nc3sc(C(=O)NC(C)(C)C)c(N)c23)c1 [Example 13] | –
9.63 | 348 | COC(=O)[C@H](NCC(=O)Nc1cccc(-c2nc(SC)nc3sc(C(=O)NC(C)(C)C)c(N)c23)c1)C(C)C [Example 5, tert-Butyl 5-amino-2-methylthio-4-(3-((N-(R-1-methoxycarbonyl-2-methyl-prop-1-yl)-glycinyl)-amino)-phenyl)-thieno[2,3-d]pyrimidine-6-carboxamide] | –
2.73 | 56.9 | CSc1nc(-c2cccc(NC(=O)CN(C)CCO)c2)c2c(N)c(C(=O)NC(C)(C)C)sc2n1 [Example 1, tert-Butyl 5-amino-2-methylthio-4-(3-((N-methyl-N-(2-hydroxyethyl)-glycinyl)-amino)-phenyl)-thieno[2,3-d]pyrimidine-6-carboxamide] | 8
5.42 | 806 | CSc1nc(-c2cccc(NC(=O)CNC(C)(C)CO)c2)c2c(N)c(C(=O)NC(C)(C)C)sc2n1 [Example 2, tert-Butyl 5-amino-2-methylthio-4-(3-((N-(1-hydroxy-2-methyl-prop-2-yl) -glycinyl)-amino)-phenyl)-thieno[2,3-d]pyrimidine-6-carboxamide] | –
10 | 1180 | COCCN(CCOC)CC(=O)Nc1cccc(-c2nc(SC)nc3sc(C(=O)NC(C)(C)C)c(N)c23)c1 [Example 6, tert-Butyl 5-amino-2-methylthio-4-(3-((N,N-bis-(2-methoxyethyl)-glycinyl)-amino)-phenyl)-thieno[2,3-d]pyrimidine-6-carboxamide] | –
14.5 | 1630 | CN(CCO)CC(=O)Nc1cccc(-c2nc(N(C)C)nc3sc(C(=O)NC(C)(C)C)c(N)c23)c1 [Example 18, tert-Butyl 5-amino-2-(N,N-dimethylamino)-4-(3-((N-methyl-N-(2-hydroxyethyl)-glycinyl)-amino)-phenyl)-thieno[2,3-d]pyrimidine-6-carboxamide] | –
5.97 | 1440 | COC(=O)CNCC(=O)Nc1cccc(-c2nc(SC)nc3sc(C(=O)NC(C)(C)C)c(N)c23)c1 [Example 3, tert-Butyl 5-amino-2-methylthio-4-(3-((N-(methoxycarbonylmethyl)-glycinyl)-amino)-phenyl)-thieno[2,3-d]pyrimidine-6-carboxamide] | –
11.6 | 953 | CCN(CCOC)CC(=O)Nc1cccc(-c2nc(OC)nc3sc(C(=O)NC(C)(C)C)c(N)c23)c1 [Example 22, tert-Butyl 5-amino-2-methoxy-4-(3-((N-ethyl-N-(2-methoxyethyl)-glycinyl)-amino)-phenyl)-thieno[2,3-d]pyrimidine-6-carboxamide] | –
5.28 | 1440 | CN(CCO)CC(=O)Nc1cccc(-c2nc(-c3cccs3)nc3sc(C(=O)NC(C)(C)C)c(N)c23)c1 [Example 14, tert-Butyl 5-amino-2-(2-thienyl)-4-(3-((N-methyl-N-(2-hydroxyethyl)-glycinyl)-amino)-phenyl)-thieno[2,3-d]pyrimidine-6-carboxamide] | –
